The text below walks through data of ChEMBL document CHEMBL1201862, “PubChem BioAssay data set” (2004).

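Briefly, cells in 96-well plates were exposed to five compound concentrations for 48 h, and endpoints were estimated by linear interpolation. GI50 is the concentration that inhibits growth by half.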 Active and inactive are the calls of the source. Rule as the data show it: active = GI50 up to about 1.1 µM and inactive = higher.

What all share (experiment): NCI-60 cell line screen, 48 h
Assay [1] relates to NCI-H226.
The test system of assay [2] is 786-0.
The test system of assay [3] is SF-295.
Assay [4] deals with RXF 393.
Assay [5] relates to HL-60.
For assay [6], the system named is OVCAR-3.
For assay [7], the system named is SK-MEL-28.
The subject of assay [8] is HCT-116.
In assay [9] the test system is K562.
The test system of assay [10] is SR.
Assay [11] has as its system NCI-H23.
In assay [12] the test system is CCRF-CEM.
Assay [13] relates to OVCAR-8.
For assay [14], the system named is CAKI-1.
Assay [15] relates to SK-MEL-5.
Assay [16] deals with MOLT-4.
The subject of assay [17] is SNB-19.
The test system of assay [18] is IGROV-1.
Assay [19] deals with HT-29.
In assay [20] the test system is OVCAR-4.

Regarding `Nc1ccc(-c2nc3ccccc3s2)cc1CO`, the GI50 in assay [1] is < 0.01 µM (active); in [2] it was > 100 µM (inactive); in assay [3], 36.5 µM (inactive); in [4], > 100 µM (inactive); in assay [5], 39 µM (inactive); in assay [6], > 100 µM (inactive). The GI50 in assay [7] was > 100 µM (inactive); in [8] it was 74.6 µM (inactive); in [9] it was 6.05 µM (inactive); in assay [10], > 84.3 µM (inactive); in [11], 60.5 µM (inactive); in assay [12] it was > 51.2 µM (inactive). Also, the GI50 in assay [13] is > 77.6 µM (inactive); in assay [14], 2.9 µM (inactive); in assay [15], 49.4 µM (inactive); in assay [16], 16.5 µM (inactive); in assay [17] it was 50.6 µM (inactive); in assay [18], > 68.5 µM (inactive). For the same molecule, the GI50 in assay [19] is > 100 µM (inactive); in assay [20], > 39.2 µM (inactive).

As to `O=C1C2=Cc3ccccc3CCN2c2ccccc21`, the GI50 in [1] was 13.9 µM (inactive); in [2], 19.6 µM (inactive); in [3] it was 34.4 µM (inactive); in assay [4], > 10 µM (inactive); in [5], 18.9 µM (inactive); in [6], 91.4 µM (inactive). Moreover, the GI50 in assay [7] is > 49.9 µM (inactive); in assay [8], 21.3 µM (inactive); in assay [9] it was 12.7 µM (inactive); in assay [10] it was 14.9 µM (inactive); in assay [11] it was > 59.6 µM (inactive); in assay [12], 13.6 µM (inactive). In addition, the GI50 in [13] is 23.6 µM (inactive); in assay [14], 19.1 µM (inactive); in assay [15], 17.3 µM (inactive); in assay [16], 18.7 µM (inactive); in [17] it was 46 µM (inactive); in assay [18], 30.2 µM (inactive). In addition, the GI50 was 14.9 µM (inactive) in assay [19] and 33.7 µM (inactive) in assay [20].

Regarding `O=C1CCCC2=C(N1)C(=O)C=CC2=O`, the GI50 in assay [1] was 11.1 µM (inactive); in [2] it was 42.5 µM (inactive); in assay [3], 41.7 µM (inactive); in assay [4], 45 µM (inactive); in [5] it was 8.61 µM (inactive); in assay [6], 43.5 µM (inactive). Further, the GI50 in [7] was 45.4 µM (inactive); in assay [8], 33.7 µM (inactive); in assay [9], 6.73 µM (inactive); in assay [10], 24.4 µM (inactive); in assay [11], 39.6 µM (inactive); in [12], 10.6 µM (inactive). The GI50 in assay [13] was 47.4 µM (inactive); in assay [14], 32.5 µM (inactive); in assay [15], 42.1 µM (inactive); in [16], 12.3 µM (inactive); in [17], 44.1 µM (inactive); in assay [18], 43 µM (inactive). The GI50 was 42.8 µM (inactive) in assay [19] and 45.7 µM (inactive) in assay [20].

Take `CC1(CCCO)CCCCCC(C)(CCCO)C1=O` (stereo not given): the GI50 in assay [1], in [2], in assay [3], in assay [4], in [5] and in assay [6] was > 100 µM (inactive) throughout. Moreover, the GI50 in assay [7], in assay [8], in [9], in [10], in [11] and in assay [12] was > 100 µM (inactive) in each case. Also, the GI50 in assay [13], in assay [14], in assay [15], in assay [16], in assay [17] and in [18] was > 100 µM (inactive) throughout. The GI50 in assay [19] and in assay [20] was > 100 µM (inactive) each time.
